Test results reported in US10329307B2, “Heterocyclic compounds as inhibitors of platelet aggregation” (UNIVERSITE DE MONTREAL, priority 2015, dated 2019).

Molecular target: PAR4 (Homo sapiens (Human), UniProt Q96RI0)
Experiment: FLIPR assay in PAR4-expressing HEK293 cells (PAR4 antagonist activity)
Assay type: cell-based
Conditions: H-Ala-Phe(4-F)-Pro-Gly-Trp-Leu-Val-Lys-Asn-Gly-NH2-induced intracellular calcium mobilization, 11-point curves
Text: The FLIPR assay is an exemplary in vitro assay for measuring the activity of the PAR4 antagonists of the present invention. In this assay, intracellular calcium mobilization is induced in PAR4 expressing cells by a PAR4 agonist and calcium mobilization is monitored. See, e.g., Example A.
HEK293 cells stably expressing PAR4 were generated by a standard method of transfection of human […] cDNA expression vector or by RAGE technology from Athersys Inc. (Cleveland, Ohio) and selected based on PAR4 protein expression of mRNA expression. […] These cells express endogenous PAR1 and can elicit calcium signal upon stimulation with PAR1 agonist peptide. Cells were grown in Dulbecco's Modified Eagle's Medium (DMEM) (Invitrogen, Carlsbad, Calif.), 10% FBS, 1% PSG, 3 μg/ml puromycin and 25 nM Methotrexate) at 37° C. with 5% CO2.
FLIPR-based calcium mobilization assay in HEK293 cells was used to measure PAR4 antagonism, agonism, and selectivity against PAR1. […] Counter screens for agonist activity and PAR1 antagonist activity were also performed. Briefly, PAR1/PAR4-expressing HEK293 cells were grown in DMEM (Life Technology, Grand Island, N.Y.) containing 10% heat-inactivated FBS, 1% Penicillin-Streptomycin, 10 μg/mL blasticidin, and 100 μg/mL Zeocin at 37° C. with 5% CO2. Cells were plated overnight prior to the experiment in a black 384-well Purecoat Amine clear bottom plate (Becton Dickinson Biosciences, San Jose, Calif.) at 10,000 cells/well in 30 μL growth medium and incubated in a humidified chamber at 37° C. with 5% CO2 overnight. Prior to compound addition, the cell medium was replaced with 40 μL of 1× calcium and magnesium-containing Hank's Balanced Saline Solution (HBSS) (with 20 mM HEPES) and 1:1000 diluted fluorescent calcium indicator (Codex Biosolutions, Gaithersburg, Md.). After a 30 minute incubation period at 37° C. and a further 30 minute incubation and equilibration period at room temperature, 20 μL test compound (diluted in 1×HBSS buffer) was added at various concentrations at 0.17% dimethyl sulfoxide (DMSO) final concentration. Changes in fluorescence intensity were measured using a Functional Drug Screening System (FDSS, Hamamatsu, Japan) to determine agonist activities. The cells were then incubated for 30 minutes at room temperature followed by addition of 20 μL of agonist peptide for antagonist activity measurement. […] Compound potency was derived from 11-point concentration-response curves.
As indicated above, the FLIPR assay, an in vitro assay, measures the PAR4 antagonist activity of compounds tested as described in Example A.

Chain of PAR4 (Q96RI0 18-385): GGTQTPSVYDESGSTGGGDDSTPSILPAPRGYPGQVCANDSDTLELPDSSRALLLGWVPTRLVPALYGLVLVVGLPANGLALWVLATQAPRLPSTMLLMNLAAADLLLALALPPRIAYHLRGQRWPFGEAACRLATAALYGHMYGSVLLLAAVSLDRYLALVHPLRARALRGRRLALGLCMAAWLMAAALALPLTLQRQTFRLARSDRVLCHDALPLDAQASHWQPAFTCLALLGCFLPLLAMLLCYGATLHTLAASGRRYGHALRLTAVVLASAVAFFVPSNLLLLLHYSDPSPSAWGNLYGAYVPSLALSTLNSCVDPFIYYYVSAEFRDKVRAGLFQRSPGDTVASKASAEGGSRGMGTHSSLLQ

Compound | IC50 [nM]
COc1cc(OCC2CCCCN2c2ccc(Cl)cc2)c2cc(-c3cn4nc(OC)sc4n3)oc2c1 (single isomer, unassigned) [Example 56] | 920
COc1cc(OCC2CCCN(c3ccc(Cl)cn3)C2)c2cc(-c3cn4nc(OC)sc4n3)oc2c1 (single isomer, unassigned) [Example 65] | 1000
COc1cc(OC[C@H]2CCCN2c2ccc(C#N)cc2)c2cc(-c3cn4nc(OC)sc4n3)oc2c1 [Example 1, (R)-4-(2-(((6-methoxy-2-(2-methoxyimidazo[2,1-b][1,3,4]thiadiazol-6-yl)benzofuran-4-yl)oxy)methyl)pyrrolidin-1-yl)benzonitrile] | 420
COc1cc(OC[C@H]2CCCN2C2CCOCC2)c2cc(-c3cn4nc(OC)sc4n3)oc2c1 [Example 2, (R)-2-methoxy-6-(6-methoxy-4-((1-(tetrahydro-2H-pyran-4-yl)pyrrolidin-2-yl)methoxy)benzofuran-2-yl)imidazo[2,1-b][1,3,4]thiadiazole] | 9400
COc1ccc(N2CCN(C(=O)OC(C)(C)C)CC2COc2cc(OC)cc3oc(-c4cn5nc(C)ccc5n4)cc23)cc1 (stereo not shown) [Example 3, tert-butyl 3-(((6-methoxy-2-(6-methylimidazo[1,2-b]pyridazin-2-yl)benzofuran-4-yl)oxy)methyl)-4-(4-methoxyphenyl)piperazine-1-carboxylate] | 1200
COc1ccc(N2CCNCC2COc2cc(OC)cc3oc(-c4cn5nc(C)ccc5n4)cc23)cc1 (stereo not shown) [Example 4, 2-(6-methoxy-4-((1-(4-methoxyphenyl)piperazin-2-yl)methoxy)benzofuran-2-yl)-6-methylimidazo[1,2-b]pyridazine] | 460000
COc1ccc(N2CCN(C(=O)c3ccccc3)CC2COc2cc(OC)cc3oc(-c4cn5nc(C)ccc5n4)cc23)cc1 (stereo not shown) [Example 5, (3-(((6-methoxy-2-(6-methylimidazo[1,2-b]pyridazin-2-yl)benzofuran-4-yl)oxy)methyl)-4-(4-methoxyphenyl)piperazin-1-yl)(phenyl)methanone] | 24000
COc1ccc(N2CCN(C(=O)C3CC3)CC2COc2cc(OC)cc3oc(-c4cn5nc(C)ccc5n4)cc23)cc1 (stereo not shown) [Example 6, cyclopropyl(3-(((6-methoxy-2-(6-methylimidazo[1,2-b]pyridazin-2-yl)benzofuran-4-yl)oxy)methyl)-4-(4-methoxyphenyl)piperazin-1-yl)methanone] | 15000
COc1ccc(N2CCN(CC3CC3)CC2COc2cc(OC)cc3oc(-c4cn5nc(C)ccc5n4)cc23)cc1 (stereo not shown) [Example 7, 2-(4-((4-(cyclopropylmethyl)-1-(4-methoxyphenyl)piperazin-2-yl)methoxy)-6-methoxybenzofuran-2-yl)-6-methylimidazo[1,2-b]pyridazine] | 16000
COc1cc(OCC2CCCN(S(=O)(=O)c3ccc(C)cc3)C2)c2cc(-c3cn4nc(OC)sc4n3)oc2c1 (stereo not shown) [Example 8, 2-methoxy-6-(6-methoxy-4-((1-tosylpiperidin-3-yl)methoxy)benzofuran-2-yl)imidazo[2,1-b][1,3,4]thiadiazole] | 1400
COc1cc(OC[C@H]2CCCN2c2ccc(Cl)cc2)c2cc(-c3cn4nc(OC)sc4n3)oc2c1 [Example 9] | 950
COc1ccc(N2CCC[C@@H]2COc2cc(OC)cc3oc(-c4cn5nc(OC)sc5n4)cc23)cc1 [Example 10] | 390
COc1cc(OC[C@H]2CCCN2c2ccc(F)cc2)c2cc(-c3cn4nc(OC)sc4n3)oc2c1 [Example 11] | 740
COc1cc(OC[C@H]2CCCN2c2ccc3c(c2)OCO3)c2cc(-c3cn4nc(OC)sc4n3)oc2c1 [Example 12] | 420
CCOC(=O)c1ccc(N2CCC[C@@H]2COc2cc(OC)cc3oc(-c4cn5nc(OC)sc5n4)cc23)cc1 [Example 13] | 550
COc1cc(OC[C@H]2CCC(=O)N2c2ccc(F)cc2)c2cc(-c3cn4nc(OC)sc4n3)oc2c1 [Example 14] | 12000
COc1cc(OC[C@@H]2CCCN2c2ccc(Cl)cc2)c2cc(-c3cn4nc(OC)sc4n3)oc2c1 [Example 15] | 1300
COc1cc(OC[C@@H]2CCCN2c2ccc(C#N)cc2)c2cc(-c3cn4nc(OC)sc4n3)oc2c1 [Example 16] | 500
COc1ccc(N2CCC[C@H]2COc2cc(OC)cc3oc(-c4cn5nc(OC)sc5n4)cc23)cc1 [Example 17] | 290
COc1cc(OC[C@@H]2CCCN2c2ccc(F)cc2)c2cc(-c3cn4nc(OC)sc4n3)oc2c1 [Example 18] | 470
COc1cccc(N2CCC[C@H]2COc2cc(OC)cc3oc(-c4cn5nc(OC)sc5n4)cc23)c1 [Example 19] | 460
COc1ccc(N2CCC[C@H]2COc2cc(OC)cc3oc(-c4cn5nc(OC)sc5n4)cc23)nc1 [Example 20] | 710
COc1cc(OC[C@@H]2CCCN2c2ccc3c(c2)OCO3)c2cc(-c3cn4nc(OC)sc4n3)oc2c1 [Example 21] | 540
COc1cc(OC[C@@H]2CCCN2c2ccc(C(F)(F)F)cc2)c2cc(-c3cn4nc(OC)sc4n3)oc2c1 [Example 22] | 440
COc1cc(OC[C@@H]2CCCN2c2ccc(OC(F)(F)F)cc2)c2cc(-c3cn4nc(OC)sc4n3)oc2c1 [Example 23] | 600

Compound | IC50 [nM]
COc1cc(OC[C@@H]2CCCN2c2ccc(C)cc2)c2cc(-c3cn4nc(OC)sc4n3)oc2c1 [Example 24] | 950
COc1cc(OC[C@@H]2CCN(c3ccc(Cl)cc3)C2)c2cc(-c3cn4nc(OC)sc4n3)oc2c1 [Example 25] | 790
COc1ccc(N2CC[C@@H](COc3cc(OC)cc4oc(-c5cn6nc(OC)sc6n5)cc34)C2)cc1 [Example 26] | 1400
COc1cc(OCC2CN(c3ccc(F)cc3)C2)c2cc(-c3cn4nc(OC)sc4n3)oc2c1 [Example 27] | 2300
COc1cc(OC[C@@H]2CCCN(c3ccc(C#N)cc3)C2)c2cc(-c3cn4nc(OC)sc4n3)oc2c1 [Example 28] | 1800
CCOC(=O)c1ccc(N2CCC[C@@H](COc3cc(OC)cc4oc(-c5cn6nc(OC)sc6n5)cc34)C2)cc1 [Example 29] | 950
COc1cc(OC[C@H]2CCCN(c3ccc(C#N)cc3)C2)c2cc(-c3cn4nc(OC)sc4n3)oc2c1 [Example 30] | 860
CCOC(=O)c1ccc(N2CCC[C@H](COc3cc(OC)cc4oc(-c5cn6nc(OC)sc6n5)cc34)C2)cc1 [Example 31] | 890
COc1ccc(N2CCCC(COc3cc(OC)cc4oc(-c5cn6nc(OC)sc6n5)cc34)C2)nc1 (stereo not shown) [Example 32] | 2800
COc1cc(OCC2CCCN(c3ccc(Cl)cc3)C2)c2cc(-c3cn4nc(OC)sc4n3)oc2c1 (stereo not shown) [Example 33] | 440
COc1cc(OC[C@@H]2CCCN(c3ccc(Cl)cc3)C2)c2cc(-c3cn4nc(OC)sc4n3)oc2c1 [Example 34] | 700
COc1cc(OC[C@H]2CCCN(c3ccc(Cl)cc3)C2)c2cc(-c3cn4nc(OC)sc4n3)oc2c1 [Example 35] | 840
COc1ccc(N2CCCC(COc3cc(OC)cc4oc(-c5cn6nc(OC)sc6n5)cc34)C2)cc1 (stereo not shown) [Example 36] | 750
COc1cc(OCC2CCCN(c3ncc(F)cc3F)C2)c2cc(-c3cn4nc(OC)sc4n3)oc2c1 (stereo not shown) [Example 37] | 560
COc1cc(OCC2CCCN(c3ccc4c(c3)OCO4)C2)c2cc(-c3cn4nc(OC)sc4n3)oc2c1 (stereo not shown) [Example 38] | 540
COc1cc(OCC2CCCN(c3ccc(C(F)(F)F)cc3)C2)c2cc(-c3cn4nc(OC)sc4n3)oc2c1 (stereo not shown) [Example 39] | 510
COc1cc(OCC2CCCN(c3ccc(C#N)cc3)C2)c2cc(-c3cn4nc(OC)sc4n3)oc2c1 (stereo not shown) [Example 40] | 1300
CCOC(=O)c1ccc(N2CCCC(COc3cc(OC)cc4oc(-c5cn6nc(OC)sc6n5)cc34)C2)cc1 (stereo not shown) [Example 41] | 2100
COc1ccc(N2CCCC(COc3cc(OC)cc4oc(-c5cn6nc(OC)sc6n5)cc34)C2)c(OC)c1 (stereo not shown) [Example 42] | 1100
COc1cc(OCC2CCCN(c3cc(C#N)ccn3)C2)c2cc(-c3cn4nc(OC)sc4n3)oc2c1 (stereo not shown) [Example 43] | 480
COc1cc(OC[C@@H]2CCCN(c3ccc(C#N)cn3)C2)c2cc(-c3cn4nc(OC)sc4n3)oc2c1 [Example 44] | 750
CCOC(=O)c1ccc(N2CCCCC2COc2cc(OC)cc3oc(-c4cn5nc(OC)sc5n4)cc23)cc1 (stereo not shown) [Example 45] | 370
COc1cc(OCC2CCCCN2c2ccc(C#N)cc2)c2cc(-c3cn4nc(OC)sc4n3)oc2c1 (stereo not shown) [Example 46] | 240
CCOC(=O)c1ccc(N2CCC(COc3cc(OC)cc4oc(-c5cn6nc(OC)sc6n5)cc34)CC2)cc1 [Example 47] | 1000
